# Measurements published in US5770625A, “Butyryl-tyrosinyl spermine, analogs thereof and methods of preparing and using same” (priority 1994, dated 1998).
# Like-named read-outs stand apart in the source and are kept apart here.
# How the values were obtained:
# [1] = test system: postsynaptic QUIS-R of locust leg muscle; assay: Antagonism of neurally-evoked twitch contraction of locust retractor unguis nerve-muscle preparation; set-up: species or system Schistocerca gregaria; conditions: for effect on the neurally-evoked twitch contraction (in words): toxin 1-10 μM
# Source text: Electrophysiological studies. The metathoracic retractor unguis nerve-muscle preparation of the locust Schistocerca gregaria was dissected and mounted in a small Perspex bath as described previously (21). The pharmacological activity on the locust nerve muscle preparation, using reduction in neurally evoked twitch amplitude as the measure of activity. Ten fractions were pharmacologically active. […] Further purification of this fraction by reverse-phase HPLC gave four peaks (FIG. 2B), the most pharmacologically was in the major peak (hatched FIG. 2B) . This fraction gave 1.1 mg of toxin as amorphous powder.
# The retractor unguis muscle and its nerve were dissected from the metathoracic legs of adult, female locusts (Schistocerca gregaria) and mounted in a Perspex perfusion chamber as described by Usherwood and Machili (21) and Bateman, et al. (14). The muscle was stretched to maximal body length and attached at its tendon or apodeme to a Grass FT 10-strain gauge by a short length of nylon thread. The volume of the muscle bath was about 0.5 ml and its contents could be exchanged within 1 sec. The preparation was perfused continuously at the rate of 5-10 ml min^-1 (except during the application of toxin (see below)) with standard locust saline of the following composition (mM): NaCl, 180; KCl, 10; CaCl2, 2; Hepes, 10; buffered to pH 6.8. The retractor unguis muscle is innervated by two excitatory motoneurons (30) and an inhibitory motoneuron (19,32), but the influence of the latter on the responsiveness of the muscle is slight. Maximal stimulation of the retractor unguis nerve at 0.2 Hz produced a series of twitch contractions of constant amplitude, which were maintained for many hours in good preparations. The test compounds were kept at -20° C. They were dissolved in locust saline on the day of the assay and tested at room temperature. The compounds were applied by pipette to a nerve-muscle preparation such that the contents of the perfusion bath were completely replaced by the test solution. Exposure to the test compound lasted 20 min. Because of the limited availability of some of the compounds, the preparation was not perfused during this period. However, the amplitude of the retractor unguis muscle twitch rarely changed by more than 5-10% over a 20 minute period. During application of the test solutions the stimulation frequency was raised to 0.6 Hz for brief periods to test for stimulus frequency-dependent effects on twitch amplitude (31,37). Dose-inhibition data were obtained by testing the effects, on single retractor unguis muscle preparations, of a range of concentrations of the test compounds. Each concentration of the respective samples was tested at least thee times, and each compound was assayed usually over a 100-fold concentration range (a total of 7-10 concentrations). The standard deviations for twitch inhibition for any given concentration of a toxin rarely exceed 10%. Those compounds for which the deviation was greater than this are identified in Tables 1-7. There was some variation in the potency of PhTX-343 and the test compounds between nerve-muscle preparations. In order to compensate for this, the following procedure was adopted: PhTX-343 was assayed at a variety of concentrations on eight retractor unguis nerve-muscle preparations to give a cumulative dose-inhibition relationship for this toxin. The concentration of PhTX-343 which reduced the twitch contraction by 50% (IC50) was then determined by fitting a curve to the data using the following equation: [formula] where: [T]= toxin concentration, I= % inhibition, Imax =maximum inhibition= 100% and n' represents the Hill slope coefficient. […] The ratio of the actual reduction in twitch amplitude obtained with this single concentration of PhTX-343 and the 50% reduction that was anticipated from the cumulative dose-inhibition relationship for this toxin, was then used as a factor to normalize the data for the test compound. […]
# locust muscle QUIS-R = assay: Voltage dependence of antagonism of locust muscle QUIS-R; conditions: block relieved above about -100 mV
# Source text: PhTX-343 binds to the QUIS-R channel, possible at a site located within its selectivity filter (35,36). Other studies in our laboratories have shown that antagonism of locust muscle QUIS-R by PhTX-343 and compound 13, the diiodo analogue, is voltage-dependent, as one might expect for open channel blockers carrying a net positive charge. […] Cation-selective membrane channels are generally envisaged as aqueous pores lined by fixed negative charges. In the case of the amphibian nicotinic acetylcholine receptor the latter are thought to be concentrated in three clusters in the vicinity of the selectively filter (41). […] The relative disposition and number of protonated groups on the toxin seems to be important in determining potency, which appears to be maximized for a given number of protonated groups when these have a constant spacing of three methylenes on their equivalents.
# [2] = target: NMDA receptors of rat brain; assay: Inhibition of glutamate-induced [3H]MK-801 binding to synaptic membranes (filtration assay); conditions: read-out: EC50 (the concentration that inhibits 50% of binding) of [3H]MK-801
# Source text: Binding PhTX-433 to NMDA Receptor. The NMDA receptor is identified by its high affinity for the compound (+)-5-methyl-10,11-dihydro-5H-dibenzo[a,d]cyclohepten-5,10-imine maleate (MK-801). Th is compound is an anticonvulsant introduced by Merck Sharp & Dohme Co. and is a potent non-competitive antagonist of the NMDA receptor. Binding of [^3 H]MK-801 t o synaptic membranes from rat brain after thorough washing is extremely poor. However, the binding (measured by a filtration assay) is potentiated by glutamate in a dose-dependent manner and reaches maximal potentiation at 10 μM glutamate (26). The increase in binding of [^3 H]MK-801 resulting from addition of glutamate has been used as an index of NMDA recep tor binding.
# [3] = test system: postjunctional, quisqualate-sensitive glutamate receptors; assay: Response of the retractor unguis muscle to bath-applied L-glutamate; set-up: species or system Schistocerca gregaria
smiles,measurement,setting,value
CCCC(=O)N[C@@H](Cc1cc(I)c(O)c(I)c1)C(=O)NCCCNCCCCNCCCN [Compound 13],increase in potency compared with PhTX-343,[1],4.5 fold
same,voltage dependence of antagonism,locust muscle QUIS-R,voltage-dependent
"CCCC(=O)N[C@@H](Cc1ccc(O)cc1)C(=O)NCCCNCCCCNCCCN [Compound 1, PhTX-343]",potency compared with natural PhTX-433 (in words),[1],somewhat less active
same,"physiological activity relative to that of PhTX-433, by locust muscle twitch inhibition concentration",[1]; PhTX-433 = 100%,80%
same,IC50,"[1]; cumulative dose-inhibition on eight nerve-muscle preparations, read-out: concentration which reduced the twitch contraction by 50% (IC50)",23 µM
same,effect on the neurally-evoked twitch contraction (in words),[1],influenced the twitch contraction in the same qualitative fashion as PhTX-433
same,voltage dependence of antagonism,locust muscle QUIS-R,voltage-dependent
"CCCC(=O)N[C@@H](Cc1ccc(O)cc1)C(=O)NCCCCNCCCNCCCN [Compound 2, PhTX-433]",effect on the neurally-evoked twitch contraction (in words),[1],abolished the twitch
same,EC50,[2],25 µM
same,effect on the response of the muscle to L-glutamate,[3],reduced the response of the retractor unguis muscle to L-glutamate
CCCC(=O)N[C@@H](Cc1ccc(O)cc1)C(=O)NCCCCNCC(C)CNCCCN (stereo partly drawn) [drawing 27],IC50,"[1]; Table 1, region A modifications, 20 min exposure, normalized with PhTX-343, ** SD < 30%, read-out: IC50",40 µM
same,Relative Potency,"[1]; Table 1, relative to PhTX-343 = 1.0",0.6
